These results are taken from patent US20140343089A1, “NOREPINEPHRINE AND SELECTIVE SEROTONIN RECEPTOR BLOCKER AND USE THEREOF” (priority 2011, published 2014).

In series [1] the test system is ICR mice. As to the kind of experiment: immobility time of forced swimming in mice. To be noted: i.p. Type of series: in vivo. The method, then:
(§1) Animals used for experiments were adult male ICR mice weighing 18˜25 g, housed in 8 pcs/cages, regulated with a 12/12 hour light/dark cycle, maintained at a constant temperature of 23±1° C. and a humidity of 50˜60% and allowed ad libitum access to rodent chow and water. After animals were purchased from the experimental animal center and performed an adaptive housing, the experiment was allowed to start.
(§2) After animal adaptive housing, all the animals were randomly divided into three groups:
(§3) Group one: negative control group, intraperitoneally injected with 1% DMSO in physiological saline (10.0 ml/kg, i.p.);
Group two: experimental drug group, the mice were intraperitoneally injected respectively with different doses of test compound Co. 3: 0.1, 0.5, 1, 5 and 10 mg/kg, i.p., the drug was formulated in 1% DMSO in physiological saline;
(§4) Group three: positive drug control group, the mice were intraperitoneally injected with Desipramine (20 mg/kg, i.p., the drug was formulated in 1% DMSO in physiological saline).
The mice were placed in a large beaker with a height of about 40 cm and an internal diameter of about 19 cm, loaded with water with a temperature of 24˜25° C. inside. The water level reached 22 cm height (Porsolt et al., 1977). […] 30 minutes, or 60 minutes later, the mice were placed into a beaker loaded with water, and immobility time of animals within 5 minutes was measured. […]

The next series is described as follows: In vivo rat PK. As to conditions: for Cmax / half-life / bioavailability: po; for half-life: read-out: In vivo rat PK T½ (p.o.) (converted); for clearance: iv, read-out: In vivo rat PK CL (i.v.); for bioavailability: read-out: In vivo rat PK F %. The source says:
The experiment was repeated for three times and the mean value was taken.

Series [2] relates to ICR mice. As to the kind of experiment: spontaneous activity in mice. It counts as in vivo. To be noted: each test dose (0.1, 0.5, 1, 5 and 10 mg/kg, i.p.); 60 minutes after dosing; P>0.05 compared with negative control. The method, then: as §1, §2, §3
Group two: experimental drug group, the mice were intraperitoneally injected respectively with different doses of test compound Co. 1: 0.1, 0.5, 1, 5 and 10 mg/kg, i.p., the drug was formulated in 1% DMSO in physiological saline. […]
The experiment employed Shanghai Jiliang animal behavior video analysis system, wherein the experimental environment was kept absolutely silent, when grabbing animals and administrating, movements were gentle to minimize adverse reactions of mental condition and emotion brought by external stimulus. […] The spontaneous activity box was connected to a recording apparatus and the activity conditions of mice within 30-60 minutes were recorded. The effects of drug or control substances on spontaneous activity in mice were determined.

The next series in a line: rPPB. It counts as in vitro ADME. To be noted: rat plasma protein binding; read-out: rPPB % bound (converted).
Series [3] relates to ICR mice. The experiment in a line: immobility time of tail suspension in mice. It counts as in vivo. As to conditions: i.p.; for immobility time of tail suspension in mice: 60 minutes after dosing. The method, then:
as §1, §2, §3
Group two: experimental drug group, the mice were intraperitoneally injected respectively with different doses of the test compound Co. 1: 0.1, 0.5, 1, 5 and 10 mg/kg, i.p., the drug was formulated in 1% DMSO in physiological saline;
as §4
The experiment employed Shanghai Jiliang animal behavior video analysis system, wherein the experimental environment was kept absolutely silent, when grabbing animals and administrating, movements were gentle to minimize adverse reactions of mental condition and emotion brought by external stimulus. 60 minutes after dosing, the site 20 mm from the tail end was fixed and the mice were hung upside-down in an activity box for 6 minutes. The immobility time in later 4 minutes was analyzed.

A short description of another series: hPPB. It counts as in vitro ADME. To be noted: human plasma protein binding; read-out: hPPB % bound (converted).
The next series is described as follows: rMics binding. As to conditions: rat microsomes; read-out: rMics binding % bound (converted). It counts as in vitro ADME.
Another series is described as follows: hMics binding. Type of series: in vitro ADME. As to conditions: human microsomes; read-out: hMics binding % bound (converted).
The conditions of series [4]: from Zhao, Chinese Journal of Psychiatry, Vol. 35, No. 4; cited from earlier work.

Structures are written as SMILES.

On to `CCN1C[C@@H]2c3ncc(C)cc3Oc3cc(F)c(C)cc3[C@@H]2C1` [Co. 3], for which the “immobility time of forced swimming in mice” value in the series with ICR mice [1] (0.5, 1.0, 5.0 and 10 mg/kg, P<0.05-0.01 compared to the negative control group) is “significantly extended”. Further, the “effect on immobility time of forced swimming compared to positive drug Desipramine” value with ICR mice [1] (Desipramine 20 mg/kg, P<0.05) was “stronger”.
In turn, `CN1C[C@@H]2c3ncccc3Oc3cc(Cl)ccc3[C@@H]2C1` [Co. 1] returned a Cmax in the series “In vivo rat PK” of 51 ng/mL. Besides, the half-life in the series “In vivo rat PK” was 4.6 h. Further, the “spontaneous activity in mice” value in the series with ICR mice [2] is “no significant effect”. The fraction unbound in the series “rPPB” was 0.2; in “hPPB”, 0.13. Also, the “immobility time of tail suspension in mice” value is “no effect” in the series with ICR mice [3] (0.1 and 0.5 mg/kg); “significantly inhibited” in the series on ICR mice [3] (1.0, 5.0 and 10 mg/kg, P<0.05-0.01 compared to the negative control group). Moreover, the “inhibitory effect on the immobility time of tail suspension compared to positive drug Desipramine” value in the series on ICR mice [3] (Desipramine 20 mg/kg) is “similar”.
On to `CN1C[C@@H]2c3ncccc3Oc3ccccc3[C@@H]2C1` [Co. 2], for which, in the series “In vivo rat PK”, the clearance was 139 mL/min/kg, the concentration peaked (Cmax) at 17 ng/mL, the bioavailability amounted to 12% and the half-life is 8.9 h. The fraction unbound in the series “rPPB” was 0.63. Further, the fraction unbound in the series “hPPB” is 0.45.
Take `CN1CCN2c3ncccc3Cc3ccccc3C2C1` (stereo not drawn) [Mirtazapine, reference compound]: the clearance in the series “In vivo rat PK” turned out to be 101 mL/min/kg. This molecule also came in with a peak concentration (Cmax) in “In vivo rat PK” of 30 ng/mL. In addition, in the series “In vivo rat PK”, the bioavailability came to 14%. The fraction unbound in the series “rPPB” was 0.11; in the series “rMics binding”, 0.79; in the series “hMics binding”, 0.69; in the series “hPPB”, 0.2.
Turning to `c1ccc2c(c1)Cc1cccnc1N1CCNCC21` (stereo not drawn) [Demethylated mirtazapine], the “share of the drug activity of mirtazapine” value in series [4] is 3%-10%.
